IC50 data for two molecules are collected here from paper PMC7693676, “Suberitamides A–C, Aryl Alkaloids from a Pseudosuberites sp. Marine Sponge that Inhibit Cbl-b Ubiquitin Ligase Activity” (Marine Drugs, 2020).

The assay deals with T1, Cbl-b (Homo sapiens, UniProt Q13191).
T1 construct: gene CBLB; N1/2 Construct; with E1 (UBE1) and E2 (UBC-H5) with ubiquitin in the assay
The experiment in a line: in vitro Cbl-b autoubiquitination assay (UBA-coated plate, biotin-ubiquitin/avidin-HRP fluorescence), dose response. The format is biochemical.

What is called IC50 is the concentration at which inhibition is half-maximal. High values mean lower potency, low ones higher potency.

T1 sequence (Q13191 whole entry): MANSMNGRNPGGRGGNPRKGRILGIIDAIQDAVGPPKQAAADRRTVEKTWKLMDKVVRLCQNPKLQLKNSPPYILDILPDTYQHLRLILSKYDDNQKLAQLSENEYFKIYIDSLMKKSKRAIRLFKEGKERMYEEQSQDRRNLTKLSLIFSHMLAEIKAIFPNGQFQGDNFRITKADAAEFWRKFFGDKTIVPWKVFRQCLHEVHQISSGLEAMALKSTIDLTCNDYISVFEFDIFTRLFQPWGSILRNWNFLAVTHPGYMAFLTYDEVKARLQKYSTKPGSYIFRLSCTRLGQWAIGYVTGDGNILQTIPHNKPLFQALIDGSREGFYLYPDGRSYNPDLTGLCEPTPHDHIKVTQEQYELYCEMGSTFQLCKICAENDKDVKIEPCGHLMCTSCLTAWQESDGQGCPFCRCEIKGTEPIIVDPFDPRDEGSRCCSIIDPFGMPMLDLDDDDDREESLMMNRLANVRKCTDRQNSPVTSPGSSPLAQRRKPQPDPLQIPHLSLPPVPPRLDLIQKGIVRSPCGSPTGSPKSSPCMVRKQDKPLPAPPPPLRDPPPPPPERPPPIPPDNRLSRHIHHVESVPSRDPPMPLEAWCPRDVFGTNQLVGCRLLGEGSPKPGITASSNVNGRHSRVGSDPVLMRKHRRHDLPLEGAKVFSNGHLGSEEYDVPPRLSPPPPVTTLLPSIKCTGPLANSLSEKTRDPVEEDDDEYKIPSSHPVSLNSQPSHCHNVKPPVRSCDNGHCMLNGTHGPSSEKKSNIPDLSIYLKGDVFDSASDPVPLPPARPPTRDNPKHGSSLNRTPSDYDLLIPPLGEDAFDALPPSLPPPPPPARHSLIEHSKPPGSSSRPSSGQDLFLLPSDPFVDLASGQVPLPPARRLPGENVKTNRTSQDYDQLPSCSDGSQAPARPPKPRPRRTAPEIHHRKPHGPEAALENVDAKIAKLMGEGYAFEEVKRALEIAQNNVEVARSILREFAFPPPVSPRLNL
T1 sequence (P22314 2-1058 partner): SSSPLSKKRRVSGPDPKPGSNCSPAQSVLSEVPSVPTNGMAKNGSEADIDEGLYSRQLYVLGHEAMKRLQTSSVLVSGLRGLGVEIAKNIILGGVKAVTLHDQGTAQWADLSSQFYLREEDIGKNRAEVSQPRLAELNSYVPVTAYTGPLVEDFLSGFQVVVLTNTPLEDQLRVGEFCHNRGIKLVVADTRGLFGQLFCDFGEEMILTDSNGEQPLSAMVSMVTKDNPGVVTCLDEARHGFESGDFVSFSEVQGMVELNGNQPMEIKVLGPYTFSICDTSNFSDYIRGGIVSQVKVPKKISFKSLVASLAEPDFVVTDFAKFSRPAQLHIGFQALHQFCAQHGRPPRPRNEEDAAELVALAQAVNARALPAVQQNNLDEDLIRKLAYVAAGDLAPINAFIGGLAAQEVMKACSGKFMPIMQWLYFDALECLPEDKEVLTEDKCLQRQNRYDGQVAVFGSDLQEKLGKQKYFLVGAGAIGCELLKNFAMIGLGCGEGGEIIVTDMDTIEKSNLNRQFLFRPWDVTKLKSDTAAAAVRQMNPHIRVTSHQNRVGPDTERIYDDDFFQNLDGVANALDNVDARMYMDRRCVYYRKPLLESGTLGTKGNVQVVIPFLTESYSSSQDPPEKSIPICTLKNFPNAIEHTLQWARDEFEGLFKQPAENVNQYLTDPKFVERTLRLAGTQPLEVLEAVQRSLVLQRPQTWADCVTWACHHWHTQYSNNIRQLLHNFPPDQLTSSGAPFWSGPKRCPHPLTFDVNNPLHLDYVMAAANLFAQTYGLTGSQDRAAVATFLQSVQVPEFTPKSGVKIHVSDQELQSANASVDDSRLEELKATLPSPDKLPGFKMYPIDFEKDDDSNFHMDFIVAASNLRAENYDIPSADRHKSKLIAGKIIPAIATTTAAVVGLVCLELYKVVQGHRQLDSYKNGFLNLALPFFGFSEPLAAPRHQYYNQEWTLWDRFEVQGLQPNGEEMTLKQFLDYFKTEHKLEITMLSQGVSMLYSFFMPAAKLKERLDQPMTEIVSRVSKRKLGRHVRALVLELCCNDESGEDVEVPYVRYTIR

Consider `CO[C@@]1(C(=O)N/C=C/c2ccc(O)cc2)O[C@](O)(C(=O)N/C=C/c2ccc(O)cc2)[C@@H](c2ccc(O)c(O)c2)[C@@H]1c1ccc(O)c(O)c1` [compound 1, suberitamide A], for which the 50% inhibitory concentration (IC50) was around 11 µM.

`O=C(N/C=C/c1ccc(O)cc1)c1c(-c2ccc(O)c(O)c2)c(-c2ccc(O)c(O)c2)c(C(=O)N/C=C/c2ccc(O)cc2)n1CCc1ccc(O)cc1` [compound 2, suberitamide B] showed a concentration for half-maximal inhibition (IC50) of around 11 µM.
